Assay results as given in patent US20020156236A1, “Binding sites for phosphotyrosine binding domains” (priority 1995, published 2002).
Read-outs that look alike come from different tables or passages of the source. Where a SMILES comes first, the peptide text is derived from it.

Molecular target: T1, PTB domain/c-erbB2 binding (GST-PTB domain of SHC; c-erbB2 from SKBR3 lysate) (Homo sapiens, UniProt P29353)
T1 construct: GST-PTB domain fusion proteins were expressed from recombinant baculovirus in sf9 cells; made in house; host or cells: Sf9 cells (recombinant baculovirus) for GST-PTB; c-erbB2 endogenous in SKBR3 cell lysate
T1 sequence (P29353 156-341): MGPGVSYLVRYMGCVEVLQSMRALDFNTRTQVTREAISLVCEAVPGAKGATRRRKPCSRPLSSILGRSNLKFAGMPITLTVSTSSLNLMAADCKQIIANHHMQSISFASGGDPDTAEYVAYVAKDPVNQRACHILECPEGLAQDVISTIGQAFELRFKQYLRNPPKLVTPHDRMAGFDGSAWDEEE
Assay: biochemical
Conditions: for block of PTB/c-erbB2 interaction at one peptide concentration, in words: FIG. 2C, 300 nM peptides (legend says 500 nM)

[1] = approximate IC50, inhibition of PTB domain/c-erbB2 binding

With `NC(Cc1ccccc1)C(=O)NC(Cc1ccccc1)C(=O)O` (stereo not drawn) the IC50 (Table 3, ability to block PTB domain/c-erbB2 binding, read-out: Affinity (IC50)) was over 30 µM.

`CC(C)C[C@H](NC(=O)[C@H](CC(N)=O)NC(=O)[C@H](CC(=O)O)NC(=O)[C@H](Cc1ccccc1)NC(=O)[C@H](C)N)C(=O)N[C@@H](Cc1ccc(OP(=O)(O)O)cc1)C(=O)N[C@@H](Cc1ccc(OP(=O)(O)O)cc1)C(=O)N[C@@H](Cc1c[nH]c2ccccc12)C(=O)N[C@@H](CC(=O)O)C(=O)N[C@@H](CCC(N)=O)C(=O)N[C@@H](CC(N)=O)C(=O)N[C@@H](CO)C(=O)O` [AFDNL (pY) (pY) WDQNS, AFDNL(pY)(pY)WDQNS] (HELM PEPTIDE1{A.F.D.N.L.[O=C([C@H](Cc1ccc(OP(=O)(O)O)cc1)N[*:1])[*:2]].[O=C([C@H](Cc1ccc(OP(=O)(O)O)cc1)N[*:1])[*:2]].W.D.Q.N.S}$$$$V2.0) gave an IC50 (Affinity (IC50)) of 0.03 µM.

For `CC(C)C[C@H](NC(=O)[C@H](CC(N)=O)NC(=O)[C@H](CC(=O)O)NC(=O)[C@H](Cc1ccccc1)NC(=O)[C@H](C)N)C(=O)N[C@@H](Cc1ccc(OP(=O)(O)O)cc1)C(=O)N[C@@H](Cc1ccc(O)cc1)C(=O)N[C@@H](Cc1c[nH]c2ccccc12)C(=O)N[C@@H](CC(=O)O)C(=O)N[C@@H](CCC(N)=O)C(=O)N[C@@H](CC(N)=O)C(=O)N[C@@H](CO)C(=O)O` [AFDNL (pY) YWDQNS, AFDNL(pY)YWDQNS] (HELM PEPTIDE1{A.F.D.N.L.[O=C([C@H](Cc1ccc(OP(=O)(O)O)cc1)N[*:1])[*:2]].Y.W.D.Q.N.S}$$$$V2.0; N-terminus and C-terminus assumed), the “fold less effective in competition” value was 30 fold, the “inhibition of / competition for PTB domain/c-erbB2 binding, in words” value was “strong inhibition” and the IC50 (Affinity (IC50)) was 1 µM. For the same molecule, the “block of PTB/c-erbB2 interaction at one peptide concentration, in words” value was “some inhibition”.

With `CC(C)C[C@H](NC(=O)[C@H](CC(N)=O)NC(=O)[C@H](CC(=O)O)NC(=O)[C@H](Cc1ccccc1)NC(=O)[C@H](C)N)C(=O)N[C@@H](Cc1ccc(O)cc1)C(=O)N[C@@H](Cc1ccc(OP(=O)(O)O)cc1)C(=O)N[C@@H](Cc1c[nH]c2ccccc12)C(=O)N[C@@H](CC(=O)O)C(=O)N[C@@H](CCC(N)=O)C(=O)N[C@@H](CC(N)=O)C(=O)N[C@@H](CO)C(=O)O` [AFDNLY (pY) WDQNS, AFDNLY(pY)WDQNS] (HELM PEPTIDE1{A.F.D.N.L.Y.[O=C([C@H](Cc1ccc(OP(=O)(O)O)cc1)N[*:1])[*:2]].W.D.Q.N.S}$$$$V2.0; N-terminus and C-terminus assumed) the “IC50 compared with that of AFDNL(pY)(pY)WDQNS, in words” value was “approximately equal”, the IC50 (Affinity (IC50)) was 0.03 µM and the IC50 (Apparent Inhibition (IC50)) was 0.03 µM. For the same molecule, the “block of PTB/c-erbB2 interaction at one peptide concentration, in words” value was “completely block” and the IC50 [1] was about 0.03 µM.

With `CC(C)C[C@H](NC(=O)[C@H](Cc1ccc(OP(=O)(O)O)cc1)NC(=O)[C@H](CCC(=O)O)NC(=O)[C@@H]1CCCN1C(=O)[C@H](CC(N)=O)NC(=O)[C@H](CCC(=O)O)NC(=O)[C@@H](NC(=O)[C@H](C)NC(=O)CNC(=O)CNC(=O)[C@H](Cc1ccccc1)NC(=O)[C@H](C)N)C(C)C)C(=O)N[C@@H](C)C(=O)N1CCC[C@H]1C(=O)N[C@@H](CCCNC(=N)N)C(=O)N[C@@H](C)C(=O)NCC(=O)N[C@H](C(=O)N[C@@H](C)C(=O)N[C@@H](CO)C(=O)N[C@@H](CCC(N)=O)C(=O)O)[C@@H](C)O` [AFGGAVENPE (pY) LAPRAGTASQ, AFGGAVENPE(pY)LAPRAGTASQ] (HELM PEPTIDE1{A.F.G.G.A.V.E.N.P.E.[O=C([C@H](Cc1ccc(OP(=O)(O)O)cc1)N[*:1])[*:2]].L.A.P.R.A.G.T.A.S.Q}$$$$V2.0) the IC50 (Apparent Inhibition (IC50)) was 1 µM and the IC50 [1] was about 1 µM.

With `CC(C)C[C@H](NC(=O)[C@@H]1CCCN1C(=O)[C@H](C)N)C(=O)N[C@@H](C)C(=O)N[C@@H](CS)C(=O)N[C@@H](CO)C(=O)N1CCC[C@H]1C(=O)N[C@@H](CCC(N)=O)C(=O)N1CCC[C@H]1C(=O)N[C@@H](CCC(=O)O)C(=O)N[C@@H](Cc1ccc(OP(=O)(O)O)cc1)C(=O)N[C@H](C(=O)N[C@@H](CC(N)=O)C(=O)N[C@@H](CCC(N)=O)C(=O)N1CCC[C@H]1C(=O)N[C@@H](CCC(=O)O)C(=O)N[C@H](C(=O)N[C@@H](CCCNC(=N)N)C(=O)N1CCC[C@H]1C(=O)N[C@@H](CCC(N)=O)C(=O)N[C@@H](CO)C(=O)O)C(C)C)C(C)C` [APLACSPQPE (pY) VNQPEVRPQS, APLACSPQPE(pY)VNQPEVRPQS] (HELM PEPTIDE1{A.P.L.A.C.S.P.Q.P.E.[O=C([C@H](Cc1ccc(OP(=O)(O)O)cc1)N[*:1])[*:2]].V.N.Q.P.E.V.R.P.Q.S}$$$$V2.0) the IC50 (Apparent Inhibition (IC50)) was over 100 µM.

With `CC(C)C[C@H](NC(=O)[C@H](CCC(N)=O)NC(=O)[C@H](CC(N)=O)NC(=O)[C@H](CCC(N)=O)NC(=O)[C@H](CO)NC(=O)[C@H](Cc1ccc(OP(=O)(O)O)cc1)NC(=O)[C@H](Cc1c[nH]c2ccccc12)NC(=O)[C@H](CO)NC(=O)[C@@H](N)CC(=O)O)C(=O)N[C@@H](Cc1ccccc1)C(=O)N[C@@H](CC(=O)O)C(=O)N[C@@H](CO)C(=O)N[C@@H](Cc1ccccc1)C(=O)N[C@@H](C)C(=O)N1CCC[C@H]1C(=O)N[C@@H](CCC(=O)O)C(=O)NCC(=O)N[C@@H](Cc1ccc(OP(=O)(O)O)cc1)C(=O)N1CCC[C@H]1C(=O)N[C@@H](C)C(=O)N[C@@H](CC(N)=O)C(=O)O` [DSW (pY) SQNQLFDSFAPEG (pY) PAN] (HELM PEPTIDE1{D.S.W.[O=C([C@H](Cc1ccc(OP(=O)(O)O)cc1)N[*:1])[*:2]].S.Q.N.Q.L.F.D.S.F.A.P.E.G.[O=C([C@H](Cc1ccc(OP(=O)(O)O)cc1)N[*:1])[*:2]].P.A.N}$$$$V2.0) the IC50 (Affinity (IC50)) was over 30 µM.

With `CC(C)C[C@H](NC(=O)[C@H](CCC(N)=O)NC(=O)[C@H](CC(N)=O)NC(=O)[C@H](CCC(N)=O)NC(=O)[C@H](CC(=O)O)NC(=O)[C@H](Cc1c[nH]c2ccccc12)NC(=O)[C@H](CO)NC(=O)[C@@H](N)CC(=O)O)C(=O)N[C@@H](Cc1ccccc1)C(=O)N[C@@H](CO)C(=O)N[C@@H](Cc1ccc(OP(=O)(O)O)cc1)C(=O)N[C@@H](Cc1ccc(OP(=O)(O)O)cc1)C(=O)N[C@@H](CO)C(=O)N[C@@H](Cc1ccccc1)C(=O)N[C@@H](C)C(=O)N1CCC[C@H]1C(=O)N[C@@H](CCC(=O)O)C(=O)NCC(=O)N1CCC[C@H]1C(=O)N[C@@H](C)C(=O)N[C@@H](CC(N)=O)C(=O)O` [DSWDQNQLFS (pY) (pY) SFAPEGPAN] (HELM PEPTIDE1{D.S.W.D.Q.N.Q.L.F.S.[O=C([C@H](Cc1ccc(OP(=O)(O)O)cc1)N[*:1])[*:2]].[O=C([C@H](Cc1ccc(OP(=O)(O)O)cc1)N[*:1])[*:2]].S.F.A.P.E.G.P.A.N}$$$$V2.0) the IC50 (Affinity (IC50)) was over 30 µM.

For `CC(C)C[C@H](NC(=O)CNC(=O)[C@H](CC(C)C)NC(=O)[C@H](Cc1ccc(OP(=O)(O)O)cc1)NC(=O)[C@H](CCC(=O)O)NC(=O)[C@@H]1CCCN1C(=O)[C@H](CC(N)=O)NC(=O)[C@H](CCC(=O)O)NC(=O)[C@H](C)NC(=O)[C@@H](NC(=O)[C@@H]1CCCN1C(=O)[C@@H](NC(=O)CNC(=O)[C@@H](N)CCC(=O)O)[C@@H](C)O)[C@@H](C)O)C(=O)N[C@@H](CC(=O)O)C(=O)N[C@H](C(=O)N1CCC[C@H]1C(=O)N[C@H](C(=O)O)C(C)C)C(C)C` [EGTPTAENPE (pY) LGLDVPV, EGTPTAENPE(pY)LGLDVPV] (HELM PEPTIDE1{E.G.T.P.T.A.E.N.P.E.[O=C([C@H](Cc1ccc(OP(=O)(O)O)cc1)N[*:1])[*:2]].L.G.L.D.V.P.V}$$$$V2.0), the IC50 (Apparent Inhibition (IC50)) was 1 µM and the IC50 [1] was about 1 µM.
